In patent US20260327211A1, “MODULATORS OF A POTASSIUM CHANNEL AND OF TRPV1 CHANNEL AND USES THEREOF” (Bsense Bio Therapeutics Ltd., priority 2023, published 2026):
Where two headings read alike, the source gives them in different places.

How the values were obtained:
[1] = Ligand-lipophilicity efficiency (LLE); type: physicochemical
Source text: Ligand-lipophilicity efficiency (LLE) is a parameter used in drug design and drug discovery to evaluate the quality of research compounds, linking potency and lipophilicity.
To follow LLE values, the following equation was used: […]
Suitable LLE value are typically higher than 3 or higher than 5.

Rat hepatocyte stability = type: in vitro ADME; details: hepatocytes; for half-life: read-out: Hepatocytes (rat) T1/2
rats [2] = assay: Accelerating rotarod; type: in vivo, rat
Protocol: Rotarod: There were two days of training in which rats were trained at a constant speed of 5 RPM for 180 seconds. After each fall the rats were placed back on the rotating rod until 180 seconds were reached. Then, the actual test started on study day 0 using the accelerating rotarod methodology. Animals were placed on the rod, which was accelerated 5-40 RPM over 180 seconds. Acceleration rate (0.19 RPM/second) was calculated from delta velocity (v2−v1) divided by delta time (t2−t1). The time to the first fall of each animal was documented, in addition to the distance and speed.

Kv7.1 = molecular target: T1, Kv7.1 (Homo sapiens, UniProt P51787); assay: Kv7.1; type: biochemical
T1 construct: Eurofins DiscoverX, USA (assay provider)
Protocol: A broad panel of 78 recombinant targets was tested for pharmacologic activity in vitro through a variety of functional assays (Eurofins DiscoverX, USA), as part of the National Institute of Neurological Disorders and Stroke (NINDS) Preclinical Screening Platform for Pain (PSPP) program. The biological targets for the in vitro profiling have been selected based on avoiding opioid receptor stimulation and targets known to be associated with adverse events or targeted by drugs of abuse. […] For each test, a reference compound was evaluated at the target of interest as a positive control.

[3] = CYP inhibition / time-dependent inhibition, CYP3A4_Testosterone; type: in vitro ADME; details: human, liver microsomes, role: inhibitor, substrate testosterone
Protocol: (§1) The time-dependent inactivation potency of the test compound to CYP enzymatic activities was assessed by the pre-incubation of the human liver microsomes with the test compound in the presence and absence of NADPH, followed by the incubation with the discrete marker substrates, as follows.
(§2) Pre-incubation with human liver microsomes (HLMs): The TDI inactivation potency on CYP enzymatic activities was evaluated through pre-incubation with HLMs (Corning). A liver microsome mixture at a concentration of 0.1 mg/mL, and the test compound at 8 different concentrations (0, 0.05, 0.165, 0.5, 1.65, 5.0, 16.5, or 50.0 μM) was warmed at 37° C. for 10 minutes. Concurrently, a set of known time-dependent inactivators was also prepared in duplicate for comparison. Following this, NADPH (1.0 mM) was added to one group (Group 1), and an equal volume of potassium phosphate buffer to the second group (Group 2), marking the beginning of a 30-minute pre-incubation at 37° C.
(§3) Incubation: After pre-incubation, the marker substrate, or marker substrate plus NADPH was added to the mixture, thereby initiating the incubation. The duration of the incubation was dependent on the type of CYP isoform being evaluated. For example, with the CYP3A isoform, the mixture was incubated over 3 minutes utilizing midazolam as the marker substrate (2.0 μM), verapamil as the standard inactivator (3.5 μM).
(§4) Termination of Reaction: Following the incubation, ice-cooled acetonitrile containing the internal standard (IS) was added to halt the reactions. Metabolites generated from the marker substrates were then measured via LC-MS/MS, assessed based on peak area ratios of the analyte to IS.

rats [4] = assay: Hot plate (53° C.); type: in vivo, rat
Protocol: Hot Plate: Animals were placed on hot plate analgesia meter (IITC Life Science Inc., CA, USA) set to 53±1° C., and the time until the first escape response was observed was recorded. A response was considered when the animals lifted or licked their leg or performed kicking behavior.

CYP2C19 = molecular target: T2, CYP2C19 (Homo sapiens, UniProt P33261); assay: CYP inhibition / time-dependent inhibition, CYP2C19_S-Mephenytoin; type: in vitro ADME; details: role: inhibitor
T2 construct: pre-incubation of the human liver microsomes with the test compound; tissue Corning; host or cells: human liver microsomes
Protocol: as §1, §2, §3, §4

CYP2B6 = molecular target: T3, CYP2B6 (Homo sapiens, UniProt P20813); assay: CYP inhibition / time-dependent inhibition, CYP2B6_Bupropion; type: in vitro ADME; details: role: inhibitor
T3 construct: pre-incubation of the human liver microsomes with the test compound; tissue Corning; host or cells: human liver microsomes
T3 sequence (P20813 1-491): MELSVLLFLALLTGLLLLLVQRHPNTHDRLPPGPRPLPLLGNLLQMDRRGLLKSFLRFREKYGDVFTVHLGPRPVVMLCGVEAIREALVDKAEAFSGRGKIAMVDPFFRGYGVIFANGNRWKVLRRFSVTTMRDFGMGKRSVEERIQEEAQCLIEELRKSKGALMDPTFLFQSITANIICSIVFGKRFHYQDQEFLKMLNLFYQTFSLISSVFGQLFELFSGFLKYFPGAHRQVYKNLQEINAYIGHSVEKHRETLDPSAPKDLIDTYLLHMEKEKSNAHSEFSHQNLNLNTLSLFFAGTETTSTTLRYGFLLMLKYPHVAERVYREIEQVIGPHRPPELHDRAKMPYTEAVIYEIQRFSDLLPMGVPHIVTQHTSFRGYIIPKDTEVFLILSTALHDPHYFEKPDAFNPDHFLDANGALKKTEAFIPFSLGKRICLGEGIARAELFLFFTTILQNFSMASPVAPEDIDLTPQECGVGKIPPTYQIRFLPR
Protocol: Pre-incubation with human liver microsomes (HLMs): The TDI inactivation potency on CYP enzymatic activities was evaluated through pre-incubation with HLMs (Corning). […] Concurrently, a set of known time-dependent inactivators was also prepared in duplicate for comparison. Following this, NADPH (1.0 mM) was added to one group (Group 1), and an equal volume of potassium phosphate buffer to the second group (Group 2), marking the beginning of a 30-minute pre-incubation at 37° C.

T2 sequence (P33261 whole entry): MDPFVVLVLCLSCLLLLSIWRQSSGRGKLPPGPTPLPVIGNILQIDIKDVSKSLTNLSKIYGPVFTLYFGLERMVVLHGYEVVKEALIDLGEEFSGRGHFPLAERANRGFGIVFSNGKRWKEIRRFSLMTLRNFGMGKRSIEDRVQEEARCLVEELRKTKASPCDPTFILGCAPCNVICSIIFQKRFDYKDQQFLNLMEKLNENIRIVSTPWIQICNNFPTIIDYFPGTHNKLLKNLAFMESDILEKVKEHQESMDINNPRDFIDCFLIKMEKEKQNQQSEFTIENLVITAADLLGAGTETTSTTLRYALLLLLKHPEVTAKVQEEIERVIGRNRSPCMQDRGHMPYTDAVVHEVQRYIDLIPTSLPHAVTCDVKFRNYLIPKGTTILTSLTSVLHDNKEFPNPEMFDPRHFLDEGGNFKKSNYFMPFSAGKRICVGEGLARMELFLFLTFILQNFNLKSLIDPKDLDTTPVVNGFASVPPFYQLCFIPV
T1 sequence (P51787 whole entry): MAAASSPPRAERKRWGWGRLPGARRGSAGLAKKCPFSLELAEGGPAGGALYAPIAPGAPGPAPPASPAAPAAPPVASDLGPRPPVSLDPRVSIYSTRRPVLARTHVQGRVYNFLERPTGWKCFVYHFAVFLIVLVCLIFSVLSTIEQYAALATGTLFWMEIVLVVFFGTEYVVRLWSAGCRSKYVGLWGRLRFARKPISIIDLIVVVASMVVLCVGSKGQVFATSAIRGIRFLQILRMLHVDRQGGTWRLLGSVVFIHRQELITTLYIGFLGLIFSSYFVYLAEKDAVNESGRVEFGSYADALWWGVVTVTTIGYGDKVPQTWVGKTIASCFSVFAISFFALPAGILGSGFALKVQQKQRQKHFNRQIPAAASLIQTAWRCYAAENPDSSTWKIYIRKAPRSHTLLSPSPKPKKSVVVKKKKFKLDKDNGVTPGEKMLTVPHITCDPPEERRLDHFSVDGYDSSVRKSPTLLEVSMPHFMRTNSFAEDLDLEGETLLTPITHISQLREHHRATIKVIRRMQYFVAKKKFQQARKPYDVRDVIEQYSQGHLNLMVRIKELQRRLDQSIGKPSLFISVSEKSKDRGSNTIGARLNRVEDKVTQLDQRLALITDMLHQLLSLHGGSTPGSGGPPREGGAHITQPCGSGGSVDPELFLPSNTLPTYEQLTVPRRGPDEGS

Cc1cn(-c2ccc(F)c(CC(=O)NCC(C)(C)O)c2)c2c(Cl)cc(Cl)cc12 [Compound 421]
LLE [1]: 2.1

O=C(Cc1cc(-n2cc(Cl)c3cc(Cl)cc(Cl)c32)ccc1F)NCCO [Compound 627]
CLint scaled (Rat hepatocyte stability): 514 mL/min/kg | half-life (Rat hepatocyte stability): 12.6 min

O=C(Cc1cncc(-n2cc(Cl)c3cc(Cl)cc(Cl)c32)c1)N[C@@H]1COC[C@H]1O [Compound 661]
Rotarod performance (rats [2]; 20 and 50 mg/kg PO, 1 and 4 hour post-dose): did not affect rotarod performance | Kv7.1 activity (Kv7.1; up to solubility limit): no measurable activity at any concentration tested | IC50 at 0.5 h ([3]; (+)NADPH pre-incubation): 7.36 µM | IC50 at 0.5 h ([3]; (−)NADPH pre-incubation): 10.1 µM | Hot plate escape latency (rats [4]; 20 and 50 mg/kg PO, 2-10 hours post-dose): no significant effect on escape latency | IC50 (CYP2C19; (+)NADPH pre-incubation, substrate S-mephenytoin, read-out: IC50 (+)NADPH CYP2C19_S-Mephenytoin): 18.5 µM | IC50 (CYP2C19; (−)NADPH pre-incubation, substrate S-mephenytoin, read-out: IC50 (−)NADPH CYP2C19_S-Mephenytoin): 15.6 µM | IC50 (CYP2B6; (+)NADPH pre-incubation, substrate bupropion, read-out: IC50 (+)NADPH CYP2B6_Bupropion): 8.91 µM | IC50 (CYP2B6; (−)NADPH pre-incubation, substrate bupropion, read-out: IC50 (−)NADPH CYP2B6_Bupropion): 11 µM | CLint scaled (Rat hepatocyte stability): 1140 mL/min/kg | half-life (Rat hepatocyte stability): 5.7 min

O=C(Cc1nccc(-n2cc(Cl)c3cc(Cl)cc(Cl)c32)n1)NC1COCC1O (centres unmarked) [Compound 760]
Rotarod (rats [2]; up to 300 mg/kg oral): displayed safety potential at up to 300 mg/kg oral dosing | Effect on Kv7.1 (Kv7.1; up to 10 micromolar): no effect | IC50 ([3]; Table 9, read-out: CYP inhibition IC50 CYP3A-Testosterone): 19.8 µM | Hot-plate response (rats [4]; up to 300 mg/kg oral): displayed safety potential at up to 300 mg/kg oral dosing | IC50 (CYP2C19; Table 9, read-out: CYP inhibition IC50 CYP2C19): > 50 µM | IC50 (CYP2B6; Table 9, read-out: CYP inhibition IC50 CYP2B6): 34.9 µM

CC(C)c1cc(Cl)cc(Cl)c1Nc1ccc(F)c(CC(=O)NCC(C)(C)O)c1 [NH91, reference compound]
LLE [1]: 1.6 | LLE Kv 7.2/7.3 [1]: 0.8 | LLE TRPV1 [1]: −0.35
